Experiments:
Format in all cases: in vivo
Lolium perenne [1] = assay: Pre-emergent herbicidal action (B.2); settings: 500 bis 2000 [g/ha], evaluated after 3 weeks
Outline: (§1)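 Immediately after sowing in greenhouse, soil surface sprayed with aqueous dispersion of an emulsion concentrate at 2000-500 g active ingredient/ha. Plants kept at 22-25 °C, 50-70% relative humidity; damage rated after 3 weeks on a 1 (dead/not germinated) to 9 (normal growth) scale.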

Amaranthus ret. [2] = assay: Pre-emergent herbicidal action (B.2); settings: 500 bis 2000 [g/ha], evaluated after 3 weeks
Outline: as §1

Bromus tectorum [3] = assay: Pre-emergent herbicidal action (B.2); settings: 500 bis 2000 [g/ha], evaluated after 3 weeks
Outline: as §1

Sinapis [4] = assay: Pre-emergent herbicidal action (B.2); settings: 500 bis 2000 [g/ha], evaluated after 3 weeks
Outline: as §1

Abutilon [5] = assay: Pre-emergent herbicidal action (B.2); settings: 500 bis 2000 [g/ha], evaluated after 3 weeks
Outline: as §1

Digitaria sang. [6] = assay: Pre-emergent herbicidal action (B.2); settings: 500 bis 2000 [g/ha], evaluated after 3 weeks
Outline: as §1

Avena fatua [7] = assay: Pre-emergent herbicidal action (B.2); settings: 500 bis 2000 [g/ha], evaluated after 3 weeks
Outline: as §1

Ipomoea = assay: Pre-emergent herbicidal action (B.2); settings: 500 bis 2000 [g/ha], evaluated after 3 weeks
Outline: as §1

Veronica Sp. [8] = assay: Pre-emergent herbicidal action (B.2); settings: 500 bis 2000 [g/ha], evaluated after 3 weeks
Outline: as §1

Galium aparine [9] = assay: Pre-emergent herbicidal action (B.2); settings: 500 bis 2000 [g/ha], evaluated after 3 weeks
Outline: as §1

Echinochloa crus galli [10] = assay: Pre-emergent herbicidal action (B.2); settings: 500 bis 2000 [g/ha], evaluated after 3 weeks
Outline: as §1

Chenopodium Sp. [11] = assay: Pre-emergent herbicidal action (B.2); settings: 500 bis 2000 [g/ha], evaluated after 3 weeks
Outline: as §1

Solanum nigrum [12] = assay: Pre-emergent herbicidal action (B.2); settings: 500 bis 2000 [g/ha], evaluated after 3 weeks
Outline: as §1

Stellaria [13] = assay: Pre-emergent herbicidal action (B.2); settings: 500 bis 2000 [g/ha], evaluated after 3 weeks
Outline: as §1

Chrysanthe. leuc. [14] = assay: Pre-emergent herbicidal action (B.2); settings: 500 bis 2000 [g/ha], evaluated after 3 weeks
Outline: as §1

Alopecurus myos. [15] = assay: Pre-emergent herbicidal action (B.2); settings: 500 bis 2000 [g/ha], evaluated after 3 weeks
Outline: as §1

Sorghum halep. [16] = assay: Pre-emergent herbicidal action (B.2); settings: 500 bis 2000 [g/ha], evaluated after 3 weeks
Outline: as §1

Baumwolle = assay: Post-emergent herbicidal action (B.3), crop tolerance; settings: 500 bis 2000 [g/ha], 15 days after treatment
Description: (§2) Im Gewächshaus wird unmittelbar nach der Einsaat der Versuchspflanzen in Saatschalen die Erdoberfläche mit einer wässrigen Dispersion der Wirkstoffe, erhalten aus einem 25 %igen Emulsionskonzentrat behandelt. Es werden Konzentrationen von 2000-500 g Wirksubstanz/Hektar angewendet. Die Saatschalen werden im Gewächshaus bei 22-25° C und 50-70 % relativer Luftfeuchtigkeit gehalten und der Versuch nach 3 Wochen ausgewertet und die Resultate nach folgender Notenskala ausgewertet. • 1 Pflanze hat nicht gekeimt oder ist eingegangen • 2-3 sehr starke Schäden • 4 starke Schäden • 5 mittlere Schäden, die Pflanzen sind verkümmert • 6 Schäden, die Pflanze kann regenerieren • 7-8 leichte Schäden • 9 normales Wachstum, wie das unbehandelter Pflanzen
(§3) Boniturnoten von 1 bis 4 (insbesondere von 1 bis 3) weisen auf eine gute bis sehr gute Herbizidwirkung hin. Boniturnoten von 6 bis 9 (insbesondere 7 bis 9) weisen auf eine gute Toleranz (insbesondere bei Kulturpflanzen) hin.
(§4) Eine Anzahl Unkräuter, sowohl monokotyle wie dikotyle, werden nach dem Auflaufen (im 4- bis 6-Blattstadium) mit einer wässrigen Wirkstoffdispersion in einer Dosierung von 2000-500 g Wirksubstanz pro Hektar auf die Pflanzen gespritzt und diese bei 24°-26°C und 45-60 % relativer Luftfeuchtigkeit gehalten. 15 Tage nach der Behandlung wird der Versuch nach dem in Beispiel B.2. gegebenen Massstab bewertet.

Soja [17] = assay: as above; settings: 500 bis 2000 [g/ha], 15 days after treatment
Description: as §2, §3, §4

Lolium perenne [18] = assay: Post-emergent herbicidal action, contact herbicide (B.3); settings: 500 bis 2000 [g/ha], 15 days after treatment
Outline: (§5)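 Greenhouse, post-emergence spray on 4-6-leaf weeds; aqueous dispersion, 2000-500 g a.i./ha; 24-26 °C, 45-60% RH; visual rating at 15 d, 1 = dead, 9 = normal growth.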

Amaranthus ret. [19] = assay: as above; settings: 500 bis 2000 [g/ha], 15 days after treatment
Outline: as §5

Bromus tectorum [20] = assay: as above; settings: 500 bis 2000 [g/ha], 15 days after treatment
Outline: as §5

Sinapis [21] = assay: as above; settings: 500 bis 2000 [g/ha], 15 days after treatment
Outline: as §5

Abutilon [22] = assay: as above; settings: 500 bis 2000 [g/ha], 15 days after treatment
Outline: as §5

Digitaria sang. [23] = assay: as above; settings: 500 bis 2000 [g/ha], 15 days after treatment
Outline: as §5

Avena fatua [24] = assay: as above; settings: 500 bis 2000 [g/ha], 15 days after treatment
Outline: as §5

Veronica Sp. [25] = assay: as above; settings: 500 bis 2000 [g/ha], 15 days after treatment
Outline: as §5

Xanthium Sp. = assay: as above; settings: 500 bis 2000 [g/ha], 15 days after treatment
Outline: as §5

Galium aparine [26] = assay: as above; settings: 500 bis 2000 [g/ha], 15 days after treatment
Outline: as §5

Echinochloa crus galli [27] = assay: as above; settings: 500 bis 2000 [g/ha], 15 days after treatment
Outline: as §5

Chenopodium Sp. [28] = assay: as above; settings: 500 bis 2000 [g/ha], 15 days after treatment
Outline: as §5

Solanum nigrum [29] = assay: as above; settings: 500 bis 2000 [g/ha], 15 days after treatment
Outline: as §5

Stellaria [30] = assay: as above; settings: 500 bis 2000 [g/ha], 15 days after treatment
Outline: as §5

Chrysanthe. leuc. [31] = assay: as above; settings: 500 bis 2000 [g/ha], 15 days after treatment
Outline: as §5

Alopecurus myos. [32] = assay: as above; settings: 500 bis 2000 [g/ha], 15 days after treatment
Outline: as §5

Sorghum halep. [33] = assay: as above; settings: 500 bis 2000 [g/ha], 15 days after treatment
Outline: as §5

Soja [34] = assay: Pre-emergent herbicidal action (B.2), crop tolerance; settings: 500 bis 2000 [g/ha], evaluated after 3 weeks
Description: as §2, §3

Question: Which Herbizidwirkung (Lolium perenne [1]) does the source give for `CC1CCCc2nc(C3=NC(=O)C(C)(C(C)C)N3)c(C(=O)O)cc21` (stereo not shown) [Verbindung 2.02, 2-(5-Isopropyl-5-methyl-1 H-imidazol-4-on-2-yl)-5-methyl-5,6,7,8-tetrahydrochinolin-3-carbonsäure] here?
Answer: Its Herbizidwirkung is “gute bis sehr gute Herbizidwirkung (Boniturnoten von 1 bis 4 (insbesondere von 1 bis 3) weisen auf eine gute bis sehr gute Herbizidwirkung hin)”.

Question: What about the Herbizidwirkung (Amaranthus ret. [2]) of the same compound?
Answer: Its Herbizidwirkung is “gute bis sehr gute Herbizidwirkung (Boniturnoten von 1 bis 4 (insbesondere von 1 bis 3) weisen auf eine gute bis sehr gute Herbizidwirkung hin)”.

Question: And the Herbizidwirkung (Bromus tectorum [3])?
Answer: Its Herbizidwirkung is “gute bis sehr gute Herbizidwirkung (Boniturnoten von 1 bis 4 (insbesondere von 1 bis 3) weisen auf eine gute bis sehr gute Herbizidwirkung hin)”.

Question: And the Herbizidwirkung (Sinapis [4])?
Answer: Its Herbizidwirkung is “gute bis sehr gute Herbizidwirkung (Boniturnoten von 1 bis 4 (insbesondere von 1 bis 3) weisen auf eine gute bis sehr gute Herbizidwirkung hin)”.

Question: And the Herbizidwirkung (Abutilon [5])?
Answer: Its Herbizidwirkung is “gute bis sehr gute Herbizidwirkung (Boniturnoten von 1 bis 4 (insbesondere von 1 bis 3) weisen auf eine gute bis sehr gute Herbizidwirkung hin)”.

Question: And the Herbizidwirkung (Digitaria sang. [6])?
Answer: Its Herbizidwirkung is “gute bis sehr gute Herbizidwirkung (Boniturnoten von 1 bis 4 (insbesondere von 1 bis 3) weisen auf eine gute bis sehr gute Herbizidwirkung hin)”.

Question: And the Herbizidwirkung (Avena fatua [7])?
Answer: The Herbizidwirkung was “gute bis sehr gute Herbizidwirkung (Boniturnoten von 1 bis 4 (insbesondere von 1 bis 3) weisen auf eine gute bis sehr gute Herbizidwirkung hin)”.

Question: What about the Herbizidwirkung (Ipomoea) of the same compound?
Answer: Its Herbizidwirkung is “gute bis sehr gute Herbizidwirkung (Boniturnoten von 1 bis 4 (insbesondere von 1 bis 3) weisen auf eine gute bis sehr gute Herbizidwirkung hin)”.

Question: What about the Herbizidwirkung (Veronica Sp. [8]) of the same compound?
Answer: Its Herbizidwirkung is “gute bis sehr gute Herbizidwirkung (Boniturnoten von 1 bis 4 (insbesondere von 1 bis 3) weisen auf eine gute bis sehr gute Herbizidwirkung hin)”.

Question: And the Herbizidwirkung (Galium aparine [9])?
Answer: The Herbizidwirkung was “gute bis sehr gute Herbizidwirkung (Boniturnoten von 1 bis 4 (insbesondere von 1 bis 3) weisen auf eine gute bis sehr gute Herbizidwirkung hin)”.

Question: And the Herbizidwirkung (Echinochloa crus galli [10])?
Answer: The Herbizidwirkung was “gute bis sehr gute Herbizidwirkung (Boniturnoten von 1 bis 4 (insbesondere von 1 bis 3) weisen auf eine gute bis sehr gute Herbizidwirkung hin)”.

Question: What about the Herbizidwirkung (Chenopodium Sp. [11]) of the same compound?
Answer: The Herbizidwirkung was “gute bis sehr gute Herbizidwirkung (Boniturnoten von 1 bis 4 (insbesondere von 1 bis 3) weisen auf eine gute bis sehr gute Herbizidwirkung hin)”.

Question: What about the Herbizidwirkung (Solanum nigrum [12]) of the same compound?
Answer: The Herbizidwirkung was “gute bis sehr gute Herbizidwirkung (Boniturnoten von 1 bis 4 (insbesondere von 1 bis 3) weisen auf eine gute bis sehr gute Herbizidwirkung hin)”.

Question: And the Herbizidwirkung (Stellaria [13])?
Answer: Its Herbizidwirkung is “gute bis sehr gute Herbizidwirkung (Boniturnoten von 1 bis 4 (insbesondere von 1 bis 3) weisen auf eine gute bis sehr gute Herbizidwirkung hin)”.

Question: And the Herbizidwirkung (Chrysanthe. leuc. [14])?
Answer: Its Herbizidwirkung is “gute bis sehr gute Herbizidwirkung (Boniturnoten von 1 bis 4 (insbesondere von 1 bis 3) weisen auf eine gute bis sehr gute Herbizidwirkung hin)”.

Question: What about the Herbizidwirkung (Alopecurus myos. [15]) of the same compound?
Answer: Its Herbizidwirkung is “gute bis sehr gute Herbizidwirkung (Boniturnoten von 1 bis 4 (insbesondere von 1 bis 3) weisen auf eine gute bis sehr gute Herbizidwirkung hin)”.

Question: What about the Herbizidwirkung (Sorghum halep. [16]) of the same compound?
Answer: Its Herbizidwirkung is “gute bis sehr gute Herbizidwirkung (Boniturnoten von 1 bis 4 (insbesondere von 1 bis 3) weisen auf eine gute bis sehr gute Herbizidwirkung hin)”.

Question: And the “Toleranz (im Wachstum beeinflusst)” value (Baumwolle)?
Answer: Its value is “gute Toleranz (Boniturnoten von 6 bis 9 (insbesondere 7 bis 9) weisen auf eine gute Toleranz (insbesondere bei Kulturpflanzen) hin)”.

Question: What about the “Toleranz (im Wachstum beeinflusst)” value (Soja [17]) of the same compound?
Answer: Its value is “gute Toleranz (Boniturnoten von 6 bis 9 (insbesondere 7 bis 9) weisen auf eine gute Toleranz (insbesondere bei Kulturpflanzen) hin)”.

Question: What about the Herbizidwirkung (Lolium perenne [18]) of the same compound?
Answer: Its Herbizidwirkung is “gute bis sehr gute Herbizidwirkung (Boniturnoten von 1 bis 4 (insbesondere von 1 bis 3) weisen auf eine gute bis sehr gute Herbizidwirkung hin)”.

Question: And the Herbizidwirkung (Amaranthus ret. [19])?
Answer: The Herbizidwirkung was “gute bis sehr gute Herbizidwirkung (Boniturnoten von 1 bis 4 (insbesondere von 1 bis 3) weisen auf eine gute bis sehr gute Herbizidwirkung hin)”.

Question: And the Herbizidwirkung (Bromus tectorum [20])?
Answer: Its Herbizidwirkung is “gute bis sehr gute Herbizidwirkung (Boniturnoten von 1 bis 4 (insbesondere von 1 bis 3) weisen auf eine gute bis sehr gute Herbizidwirkung hin)”.

Question: What about the Herbizidwirkung (Sinapis [21]) of the same compound?
Answer: The Herbizidwirkung was “gute bis sehr gute Herbizidwirkung (Boniturnoten von 1 bis 4 (insbesondere von 1 bis 3) weisen auf eine gute bis sehr gute Herbizidwirkung hin)”.

Question: And the Herbizidwirkung (Abutilon [22])?
Answer: The Herbizidwirkung was “gute bis sehr gute Herbizidwirkung (Boniturnoten von 1 bis 4 (insbesondere von 1 bis 3) weisen auf eine gute bis sehr gute Herbizidwirkung hin)”.

Question: And the Herbizidwirkung (Digitaria sang. [23])?
Answer: Its Herbizidwirkung is “gute bis sehr gute Herbizidwirkung (Boniturnoten von 1 bis 4 (insbesondere von 1 bis 3) weisen auf eine gute bis sehr gute Herbizidwirkung hin)”.

Question: And the Herbizidwirkung (Avena fatua [24])?
Answer: Its Herbizidwirkung is “gute bis sehr gute Herbizidwirkung (Boniturnoten von 1 bis 4 (insbesondere von 1 bis 3) weisen auf eine gute bis sehr gute Herbizidwirkung hin)”.

Question: What about the Herbizidwirkung (Veronica Sp. [25]) of the same compound?
Answer: Its Herbizidwirkung is “gute bis sehr gute Herbizidwirkung (Boniturnoten von 1 bis 4 (insbesondere von 1 bis 3) weisen auf eine gute bis sehr gute Herbizidwirkung hin)”.

Question: What about the Herbizidwirkung (Xanthium Sp.) of the same compound?
Answer: Its Herbizidwirkung is “gute bis sehr gute Herbizidwirkung (Boniturnoten von 1 bis 4 (insbesondere von 1 bis 3) weisen auf eine gute bis sehr gute Herbizidwirkung hin)”.

Question: And the Herbizidwirkung (Galium aparine [26])?
Answer: Its Herbizidwirkung is “gute bis sehr gute Herbizidwirkung (Boniturnoten von 1 bis 4 (insbesondere von 1 bis 3) weisen auf eine gute bis sehr gute Herbizidwirkung hin)”.

Question: And the Herbizidwirkung (Echinochloa crus galli [27])?
Answer: The Herbizidwirkung was “gute bis sehr gute Herbizidwirkung (Boniturnoten von 1 bis 4 (insbesondere von 1 bis 3) weisen auf eine gute bis sehr gute Herbizidwirkung hin)”.

Question: And the Herbizidwirkung (Chenopodium Sp. [28])?
Answer: The Herbizidwirkung was “gute bis sehr gute Herbizidwirkung (Boniturnoten von 1 bis 4 (insbesondere von 1 bis 3) weisen auf eine gute bis sehr gute Herbizidwirkung hin)”.

Question: What about the Herbizidwirkung (Solanum nigrum [29]) of the same compound?
Answer: The Herbizidwirkung was “gute bis sehr gute Herbizidwirkung (Boniturnoten von 1 bis 4 (insbesondere von 1 bis 3) weisen auf eine gute bis sehr gute Herbizidwirkung hin)”.

Question: What about the Herbizidwirkung (Stellaria [30]) of the same compound?
Answer: The Herbizidwirkung was “gute bis sehr gute Herbizidwirkung (Boniturnoten von 1 bis 4 (insbesondere von 1 bis 3) weisen auf eine gute bis sehr gute Herbizidwirkung hin)”.

Question: And the Herbizidwirkung (Chrysanthe. leuc. [31])?
Answer: Its Herbizidwirkung is “gute bis sehr gute Herbizidwirkung (Boniturnoten von 1 bis 4 (insbesondere von 1 bis 3) weisen auf eine gute bis sehr gute Herbizidwirkung hin)”.

Question: What about the Herbizidwirkung (Alopecurus myos. [32]) of the same compound?
Answer: Its Herbizidwirkung is “gute bis sehr gute Herbizidwirkung (Boniturnoten von 1 bis 4 (insbesondere von 1 bis 3) weisen auf eine gute bis sehr gute Herbizidwirkung hin)”.

Question: What about the Herbizidwirkung (Sorghum halep. [33]) of the same compound?
Answer: The Herbizidwirkung was “gute bis sehr gute Herbizidwirkung (Boniturnoten von 1 bis 4 (insbesondere von 1 bis 3) weisen auf eine gute bis sehr gute Herbizidwirkung hin)”.

Question: What about the “Toleranz (im Wachstum beeinflusst)” value (Soja [34]) of the same compound?
Answer: Its value is “gute Toleranz (Boniturnoten von 6 bis 9 (insbesondere 7 bis 9) weisen auf eine gute Toleranz (insbesondere bei Kulturpflanzen) hin)”.
